Laboratory results taken from patent US6656971B2, “Trisubstituted carbocyclic cyclophilin binding compounds and their use” (Guilford Pharmaceuticals Inc., priority 2001, dated 2003).

Legend:
human recombinant CyPA [1] = biological target: T1, human recombinant CyPA (Homo sapiens, UniProt P62937); assay: Semiautomated microtiter plate assay of rotamase activity inhibition, human recombinant CyPA; type: biochemical; conditions: Table B, value without asterisk: human recombinant CyPA
Experimental: (§1) Rotamase inhibition was determined using a semiautomated microtiter plate assay modification of the above described assay [see Küllertz et al., Clin. Chem. 44, 502-508 (1998)]. All dilutions of CyPA, peptide substrate, and chymotrypsin were made in 35 mM ice-cold HEPES buffer. Fifty μL of CyPA solution is added to 50 μL of the peptide substrate solution (Phe-Pro-Phe p-nitroanilide, 0.16 mg/ml) in a glass microtiter well plate (the concentration of human recombinant CyP being adjusted so that the reaction rate is increased by a factor of 3 as compared to an uncatalyzed control reaction wherein the peptide substrate is degraded by chymotrypsin alone, in the absence of CyPA and test compound). Using a Beckman Multimek™ 96 automated 96-channel pipettor, 5 μL of test compound solution, or a DMSO blank, were added to each well for a 30 minute preincubation at 4° C. One hundred μL of chymotrypsin solution (1 mg/mL) were added to each well and the absorbance at 390 nm versus time was monitored for 9-10 minutes using a BioRad Ultramark plate reader maintained at 4° C. and the rate constants were determined from the absorbance versus time data files.
(§2) IC50 values which were obtained for representative compounds are presented in the following Table B. The cyclophilin utilized was a human recombinant CyPA. […] While CyP A was used in these examples, other CyP proteins can be substituted.

human recombinant CyPA [2] = biological target: T1, human recombinant CyPA; assay: Rotamase (PPIase) inhibition, chymotrypsin-coupled cuvette assay, human recombinant CyPA; type: biochemical; conditions: Table A, value without asterisk: human recombinant CyPA
Description: A number of substrates for rotamase are known in the art or can be derived from those known. Typically, the substrate contacts a sample containing a protein with rotamase activity and the conversion of the substrate is detected after a period of time. The method for detecting conversion of the substrate will vary with the particular substrate chosen. One method has been termed the Ki test (See Harding, et al., Nature, 341:758-760 (1989); and Holt et al., J. Am. Chem. Soc., 115:9923-9938). The cis-trans isomerization of an alanine-proline bond in a model substrate, N-succinyl-Ala-Ala-Pro-Phe-p-nitroanilide (SEQ ID NO: 1), is monitored spectrophotometrically in a chymotrypsin-coupled assay. The action of chymotrypsin releases p-nitroaniline from only the trans form of the substrate. The amount of p-nitroaniline can be monitored in a spectrophotometer, for example. Other methods of detecting the presence of p-nitroaniline can also be used. The inhibition of this reaction caused by different concentrations of inhibitor is determined and the data are analyzed as a change in first-order rate constant as a function of inhibitor concentration, which yields the Ki value.
The following were added to a plastic cuvette: 950 μl of ice cold assay buffer (25 mM HEPES, pH 7.8, 100 mM NaCl), 10 μL of CyP A (2.5 μM in 10 mM Tris-Cl pH 7.5, 100 mM NaCl, 1 mM dithiothreitol), 25 μL of chymotrypsin (50 mg/ml in 1 mM HCl), and 10 μL of test compound, at various concentrations, in dimethyl sulfoxide. The reaction was initiated by the addition of 5 μL of substrate (succinyl-Ala-Phe-Pro-Phe-para-nitroanilide (SEQ ID NO: 1), 5 mg/mL in 470 mM LiCl in trifluoroethanol). The absorbance at 390 nm versus time was monitored for 90 seconds using a spectrophotometer and the rate constants were determined from the absorbance versus time data files.
The IC50 values which were obtained for representative compounds are given in the following Table A, and refer to the concentration that inhibits 50% of the rotamase activity in a sample.
(§3) The Cyclophilin utilized was a human recombinant CyPA, [Yoo et al., J. Mol. Biol., 269 (1997) 780-95].

[3] = biological target: T2, recombinant rat CyPA-GST fusion protein (Rattus norvegicus, UniProt P10111); assay: Rotamase (PPIase) inhibition, chymotrypsin-coupled cuvette assay, rat CyPA-GST fusion protein; type: biochemical; conditions: Table A, value with asterisk: recombinant rat CyPA-GST fusion protein
T2 construct: made in house; host or cells: E. coli BL21
T2 sequence (P10111 2-164): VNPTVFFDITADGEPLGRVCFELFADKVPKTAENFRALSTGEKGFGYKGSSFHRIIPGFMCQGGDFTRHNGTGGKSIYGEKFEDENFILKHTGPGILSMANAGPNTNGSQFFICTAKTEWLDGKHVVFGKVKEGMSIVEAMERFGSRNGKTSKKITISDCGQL

[4] = biological target: T2, recombinant rat CyPA-GST fusion protein; assay: Semiautomated microtiter plate assay of rotamase activity inhibition, rat CyPA-GST fusion protein; type: biochemical; conditions: Table B, value with asterisk: recombinant rat CyPA-GST fusion protein
Experimental: as §3
The resulting fragment (573 base pairs) was cloned into pCRII and amplified. The CyP sequence was cut out with Sma1 and EcoR1 and cloned into the Sma1/EcoR1 sites in pGEX2TK (Pharmacia). This plasmid was transformed into BL21 E. coli cells for expression of the GST-CyPA fusion protein.
as §1, §2

[5] = tested on: nigrostriatal dopaminergic fibers; assay: MPTP-lesioned mouse model of Parkinson's disease, striatal TH fiber density; type: in vivo, CD1 albino mice; conditions: for % protection of striatal tyrosine hydroxylase-immunoreactive fibres: 10 mg/kg s.c. once daily days 1-5, one hour prior to MPTP, perfused day seven

T1 sequence (P62937 whole entry): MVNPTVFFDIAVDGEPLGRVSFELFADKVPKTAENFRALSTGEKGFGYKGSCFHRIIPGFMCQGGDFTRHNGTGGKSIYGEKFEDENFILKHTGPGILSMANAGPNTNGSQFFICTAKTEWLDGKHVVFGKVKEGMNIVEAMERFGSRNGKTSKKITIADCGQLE

Compound | IC50 (human recombinant CyPA [1]) [nM] | IC50 (human recombinant CyPA [2]) [nM] | IC50 [3] [nM] | further results
O=C(NNC(=O)c1cc(O)cc(NC(=O)c2cccc(C(F)(F)F)c2)c1)c1ccccc1 [Compound 15, 1-Benzoyl-2-{3-[(3-trifluoromethyl)phenyl]carbonylamino-5-hydroxy}benzoylhydrazine] | 9100 | 18700 |  | 
O=C(Nc1ccc(Cl)c(Cl)c1)c1cccc(COc2cc(C(=O)Nc3ccc(Cl)c(Cl)c3)cc(C(=O)Nc3ccc(Cl)c(Cl)c3)c2)c1 [Compound 38, 3-{[(3,4-dichlorophenyl)aminocarbonyl]benzyloxy}-1,5-bis-[(3,4-dichloro-phenyl)aminocarbonyl]benzene] |  | 736 |  | 
Nc1cc(CN2C(=O)c3ccccc3C2=O)cc(NC(=S)Nc2cc(Cl)cc(Cl)c2)c1 [Compound 31, 2-{[3-amino-5-({[(3,5-dichlorophenyl)amino]thioxomethyl}amino)phenyl]methyl}isoindoline-1,3-dione] |  | 1580 | 3530 | IC50 [4]: 6940 nM
O=C(Nc1cccc(C(F)(F)F)c1)c1cc(OCc2ccc3ccccc3c2)cc(C(=O)Nc2cccc(C(F)(F)F)c2)c1 [Compound 42, 1,3-Bis[(3-trifluoromethylphenyl)aminocarbonyl]-5-[(2-naphthyl)methyloxy]benzene] |  |  | 230 | % protection of striatal tyrosine hydroxylase-immunoreactive fibres [5]: 44.1%; striatal TH fiber density ([5]; regeneration protocol: MPTP days 1-5, compound once daily on days 8-12, perfused day 18): 88%
N#Cc1ccccc1-c1ccc(COc2cc(C(=O)NCCc3ccc(Cl)c(Cl)c3)cc(C(=O)NCCc3ccc(Cl)c(Cl)c3)c2)cc1 [Compound 21, 1-[4-(2-cyanophenyl)benzy]loxy-3,5-bis{2-[(3,4-dichlorophenyl)ethyl]aminocarbonyl}benzene] | 1730 | 490 |  | 
(3-bromo-5-{N-[3-(trifluoromethyl)phenyl]carbamoyl}phenyl)-N-[3-(trifluoromethyl) phenyl]formamide [Compound 26] | 2540 | 909 |  | 
CN(C)c1ccc(Nc2ccc(NC(=S)Nc3cc(Cl)cc(Cl)c3)cc2NC(=S)Nc2cc(Cl)cc(Cl)c2)cc1 [Compound 35, [(3,5-dichlorophenyl)amino]{[5-({[(3,5-dichlorophenyl)amino]thioxomethyl}amino)-2-{[4-(dimethylamino)phenyl]amino}phenyl]amino}methane-1-thione] |  |  | 1310 | IC50 [4]: 353 nM
S=C(Nc1cc(Cl)cc(Cl)c1)Nc1ccc(N2CCCCC2)c(NC(=S)Nc2cc(Cl)cc(Cl)c2)c1 [Compound 44] |  |  | 374 | % protection of striatal tyrosine hydroxylase-immunoreactive fibres [5]: 25.1%
O=C(Nc1cccc([N+](=O)[O-])c1)c1ccc(Br)c(C(=O)Nc2cccc([N+](=O)[O-])c2)c1 [Compound 41, {2-bromo-5-[N-(3-nitrophenyl)carbamoyl]phenyl}-N-(3-nitrophenyl) formamide] |  | 1370 |  | 
O=C(Nc1cccc(C(F)(F)F)c1)c1cc(/C=C/c2ccc3ccccc3c2)cc(C(=O)Nc2cccc(C(F)(F)F)c2)c1 [Compound 25, (5-(2-(2-naphthyl)vinyl)-3-{N-[3-(trifluoromethyl)phenyl]carbamoyl}phenyl)-N-[3-(trifluoromethyl)phenyl]formamide] | 2030 | 297 |  | 
S=C(Nc1cc(Cl)cc(Cl)c1)Nc1ccc(Nc2ccc(Cl)cc2)c(NC(=S)Nc2cc(Cl)cc(Cl)c2)c1 [Compound 36, [(3,5-dichlorophenyl)amino]{[3-({[(3,5-dichlorophenyl)amino]thioxo-methyl}amino)-4-[(4-chlorophenyl)amino]phenyl]amino}methane-1-thione] |  |  | 609 | 
COc1ccc(NC(=O)Cc2cccc3ccccc23)cc1OCc1cccc2ccccc12 [Compound 48, N-[4-methoxy-3-(naphthylmethoxy)phenyl]-2-naphthylethanamide] |  |  | 1190 | 
O=C(Nc1ccc(Cl)c(C(F)(F)F)c1)c1cccc(COc2cc(C(=O)Nc3ccc(Cl)c(C(F)(F)F)c3)cc(C(=O)Nc3ccc(Cl)c(C(F)(F)F)c3)c2)c1 [Compound 37, 3-{[(3-Trifluoromethyl-4-chlorophenyl)aminocarbonyl]benzyloxy}-1,5-bis-[(3-trifluoromethyl-4-chlorophenyl)aminocarbonyl]benzene] |  | 1200 |  | 
O=C(Nc1cc(Cl)cc(Cl)c1)c1cc(COc2ccc(Cl)c(Cl)c2)cc(C(=O)Nc2cc(Cl)cc(Cl)c2)c1 [Compound 20, 1-[(3,4-dichlorophenyl)oxymethyl]-3,5-bis-[(3,5-dichlorophenyl)aminocarbonyl]benzene] | 499 | 153 |  | 
S=C(Nc1cc(Cl)cc(Cl)c1)Nc1cc(NC(=S)Nc2cc(Cl)cc(Cl)c2)cc(Nc2ccccn2)c1 [Compound 13] | 1370 | 456 |  | 
COc1ccc(NC(=S)Nc2cc(Cl)cc(Cl)c2)cc1COc1cc(Cl)cc(Cl)c1 [Compound 45, 1-[3-(3,5-Dichlorophenoxy)methyl-4-methoxyphenyl]-3-(3,5-dichlorophenyl)thiourea] |  |  | 609 | 
O=C(Nc1cc(Cl)c(Cl)c(Cl)c1)c1cc(OCc2ccc(Cl)c(Cl)c2)cc(C(=O)Nc2cc(Cl)c(Cl)c(Cl)c2)c1 [Compound 32, 1-(3,4-dichlorobenzyloxy)-3,5-bis-[(3,4,5-trichlorophenyl)aminocarbonyl]benzene] | 51.5 | 164 | 102 | IC50 [4]: 91.7 nM
